Experimental data taken from the NIST ThermoML archive (doi:10.1021/acs.jced.7b00106).
Several values for one entry are separate records, joined by “and”; a condition that tells them apart may be missing. Equal values may be shown once.

Conditions: Hot wire method

FC(F)(F)/C=C/Cl [(E)-1-chloro-3,3,3-trifluoroprop-1-ene]
Conditions | thermal conductivity
421.68 K, 2403 kPa, Fluid (supercritical or subcritical phases) | 0.02418 W/m/K
421.69 K, 1998 kPa, Fluid (supercritical or subcritical phases) | 0.02232 W/m/K
421.7 K, 1999 kPa, Fluid (supercritical or subcritical phases) | 0.02203 W/m/K
421.71 K, 1562 kPa, Fluid (supercritical or subcritical phases) | 0.02117 W/m/K
421.72 K, 2307 kPa, Fluid (supercritical or subcritical phases) | 0.02349 W/m/K
421.74 K, 801 kPa, Fluid (supercritical or subcritical phases) | 0.0208 W/m/K
421.75 K, 1862 kPa, Fluid (supercritical or subcritical phases) | 0.02184 W/m/K
421.75 K, 1863 kPa, Fluid (supercritical or subcritical phases) | 0.02174 W/m/K
421.77 K, 1401 kPa, Fluid (supercritical or subcritical phases) | 0.02096 W/m/K
421.77 K, 1403 kPa, Fluid (supercritical or subcritical phases) | 0.02094 W/m/K
421.78 K, 3760 kPa, Liquid | 0.05136 W/m/K and 0.05147 W/m/K
421.79 K, 2203 kPa, Fluid (supercritical or subcritical phases) | 0.02296 W/m/K and 0.02299 W/m/K
421.8 K, 3309 kPa, Liquid | 0.05069 W/m/K
421.81 K, 1723 kPa, Fluid (supercritical or subcritical phases) | 0.02142 W/m/K
421.81 K, 1724 kPa, Fluid (supercritical or subcritical phases) | 0.02139 W/m/K
421.81 K, 2616 kPa, Liquid | 0.04986 W/m/K and 0.05013 W/m/K
421.81 K, 2914 kPa, Liquid | 0.05019 W/m/K and 0.05004 W/m/K
421.81 K, 3308 kPa, Liquid | 0.05077 W/m/K
421.83 K, 1221 kPa, Fluid (supercritical or subcritical phases) | 0.0209 W/m/K
421.84 K, 2100 kPa, Fluid (supercritical or subcritical phases) | 0.02258 W/m/K
421.85 K, 2099 kPa, Fluid (supercritical or subcritical phases) | 0.02249 W/m/K
421.88 K, 1030 kPa, Fluid (supercritical or subcritical phases) | 0.02077 W/m/K
421.88 K, 1033 kPa, Fluid (supercritical or subcritical phases) | 0.02075 W/m/K
421.88 K, 1998 kPa, Fluid (supercritical or subcritical phases) | 0.0222 W/m/K and 0.02217 W/m/K
421.91 K, 1563 kPa, Fluid (supercritical or subcritical phases) | 0.02121 W/m/K
421.91 K, 2306 kPa, Fluid (supercritical or subcritical phases) | 0.02366 W/m/K
421.91 K, 2307 kPa, Fluid (supercritical or subcritical phases) | 0.02365 W/m/K
421.92 K, 1563 kPa, Fluid (supercritical or subcritical phases) | 0.02116 W/m/K
421.94 K, 802 kPa, Fluid (supercritical or subcritical phases) | 0.02077 W/m/K
421.95 K, 1862 kPa, Fluid (supercritical or subcritical phases) | 0.02178 W/m/K and 0.0218 W/m/K
421.97 K, 2203 kPa, Fluid (supercritical or subcritical phases) | 0.02307 W/m/K
421.98 K, 1401 kPa, Fluid (supercritical or subcritical phases) | 0.02101 W/m/K
421.98 K, 1403 kPa, Fluid (supercritical or subcritical phases) | 0.02116 W/m/K
421.98 K, 2204 kPa, Fluid (supercritical or subcritical phases) | 0.02311 W/m/K
421.99 K, 3758 kPa, Liquid | 0.05138 W/m/K
421.99 K, 4307 kPa, Liquid | 0.05224 W/m/K
422 K, 3762 kPa, Liquid | 0.05146 W/m/K
422 K, 4305 kPa, Liquid | 0.0522 W/m/K
422.01 K, 1724 kPa, Fluid (supercritical or subcritical phases) | 0.02156 W/m/K and 0.02145 W/m/K
422.01 K, 2914 kPa, Liquid | 0.05029 W/m/K
422.01 K, 3308 kPa, Liquid | 0.05079 W/m/K
422.01 K, 3310 kPa, Liquid | 0.05082 W/m/K
422.02 K, 2616 kPa, Liquid | 0.05008 W/m/K and 0.05005 W/m/K
422.02 K, 2914 kPa, Liquid | 0.05026 W/m/K
422.03 K, 2099 kPa, Fluid (supercritical or subcritical phases) | 0.02265 W/m/K
422.04 K, 2099 kPa, Fluid (supercritical or subcritical phases) | 0.02262 W/m/K
422.06 K, 1218 kPa, Fluid (supercritical or subcritical phases) | 0.02083 W/m/K
422.06 K, 1220 kPa, Fluid (supercritical or subcritical phases) | 0.0209 W/m/K
422.08 K, 1998 kPa, Fluid (supercritical or subcritical phases) | 0.0223 W/m/K
422.1 K, 1030 kPa, Fluid (supercritical or subcritical phases) | 0.02079 W/m/K
422.1 K, 1031 kPa, Fluid (supercritical or subcritical phases) | 0.02076 W/m/K
422.12 K, 1562 kPa, Fluid (supercritical or subcritical phases) | 0.02118 W/m/K
422.16 K, 1862 kPa, Fluid (supercritical or subcritical phases) | 0.02194 W/m/K
422.16 K, 1863 kPa, Fluid (supercritical or subcritical phases) | 0.02189 W/m/K
422.18 K, 803 kPa, Fluid (supercritical or subcritical phases) | 0.0208 W/m/K
422.18 K, 4947 kPa, Liquid | 0.05308 W/m/K
422.18 K, 4948 kPa, Liquid | 0.05312 W/m/K
422.2 K, 1401 kPa, Fluid (supercritical or subcritical phases) | 0.02102 W/m/K
422.2 K, 1402 kPa, Fluid (supercritical or subcritical phases) | 0.02108 W/m/K
422.21 K, 3760 kPa, Liquid | 0.05155 W/m/K and 0.05149 W/m/K
422.21 K, 4301 kPa, Liquid | 0.05224 W/m/K
422.22 K, 4305 kPa, Liquid | 0.05226 W/m/K
422.23 K, 1723 kPa, Fluid (supercritical or subcritical phases) | 0.02155 W/m/K
422.23 K, 3307 kPa, Liquid | 0.05087 W/m/K
422.24 K, 1723 kPa, Fluid (supercritical or subcritical phases) | 0.0216 W/m/K
422.24 K, 3310 kPa, Liquid | 0.05093 W/m/K
422.25 K, 1221 kPa, Fluid (supercritical or subcritical phases) | 0.0209 W/m/K
422.25 K, 2616 kPa, Liquid | 0.05034 W/m/K
422.25 K, 2913 kPa, Liquid | 0.05043 W/m/K
422.25 K, 2914 kPa, Liquid | 0.05049 W/m/K
422.33 K, 1032 kPa, Fluid (supercritical or subcritical phases) | 0.02082 W/m/K
422.33 K, 1561 kPa, Fluid (supercritical or subcritical phases) | 0.02131 W/m/K
422.33 K, 6610 kPa, Liquid | 0.05507 W/m/K
